Entries after “also recorded” stand apart in the source; their conditions may differ.
Experiments:
HepG2 cells [1] = assay: Fibrinogen secretion by HepG2 cells (ELISA of media); format: cell-based, human; conditions: for fibrinogen secretion in media in which one amino acid was omitted: named amino acid omitted, isonitrogenously compensated with the other amino acids; for inhibition of IL-6 induced fibrinogen secretion: IL-1β 10 ng/ml, insulin 1 μM
Experimental: (§1) The effects of either the amino acid concentration or the amino acid composition on the acute-phase protein response in a human hepatocellular cell line (HepG2 cell) were studied. As model components, the production of fibrinogen and albumin were studied.
(§2) Cell culture: Human hepatoma HepG2 cells (ATCC HB-8065) were maintained in DMEM supplemented with 10% heat inactivated fetal calf serum (Life Technologies) with 2 mM glutamine and streptomycin/penicillin in Costar T75 flasks at 37° C. in a humidified atmosphere of 95% air-5% CO2. For experiments HepG2 cells were incubated in RPMI-1640 media without fetal calf serum. All experiments were carried out in 6 wells plates.
(§3) Incubations: HepG2 cells were grown in 6 wells plates to confluence, washed with DMEM ([…]) and subsequently incubated during 24-h with IL-6 and the custom media (RPMI-1640; RPMI-1640 select amino kit Gibco BRL). After the incubations, the media were collected and stored at −20° C. until analysis. The cells were then washed with phosphate-buffered saline (PBS) and lysed with 0.1M NaOH. The protein content was determined using the Bio-Rad Protein assay (Dye Reagent Concentrate, Bio-Rad Laboratories, Inc., Hercules Calif., USA) using bovine albumin (Sigma Aldrich) as standard. The data are presented as μg acute-phase protein in the supernatant per milligram protein cell content.
(§4) Antibodies: Rabbit anti-human fibrinogen and horseradish peroxidase (HRP)—conjugated rabbit anti-human fibrinogen were obtained from DakoCytomation (Denmark A/S, Glostrup, Denmark), anti-human albumin, HRP-conjugated anti-human albumin were obtained from Dade Behring B.V. (Leusden, the Netherlands).
(§5) ELISAs: Albumin and fibrinogen: 96-well flat-bottom Costar EIA/RIA plates were coated overnight with primary antibody in PBS at predetermined optimal concentration. After each incubation step, the plates were washed with 0.1% Tween-20 (Merck Eurolab B.V., Roden, the Netherlands) in PBS. After washing, the plates were blocked with 5% Protifar (Nutricia B.V., Zoetermeer, the Netherlands) in PBS during 90 min. Subsequently, the samples and antigen were incubated in 0.1% Tween-20 in PBS during 90 min. Next, the plates were incubated with HRP-conjugated antibodies in 0.1% Tween-20 in PBS during 90 min. The colorimetric reaction was carried out with undiluted 1-Step Ultra TMB-ELISA (Pierce, Rockland, Ill., USA). The reaction was stopped with 2 M sulphuric acid. The absorbances of the samples were measured at λ=450 nm.

HepG2 cells [2] = assay: Albumin secretion by HepG2 cells (ELISA of media); format: cell-based, human; conditions: for albumin secretion in media in which one amino acid was omitted: named amino acid omitted, isonitrogenously compensated with the other amino acids
Experimental: as §1, §2, §3, §4, §5

[3] = added in combination with IL-6 10 ng/ml, n=6

| Molecule | fibrinogen secretion in media in which one amino acid was omitted (HepG2 cells [1]) | albumin secretion in media in which one amino acid was omitted (HepG2 cells [2]) | also measured |
| --- | --- | --- | --- |
| IL-6: Human IL-6 obtained from Sigma Aldrich [reference compound] |  |  | fibrinogen secretion (excretion) from HepG2 cells (HepG2 cells [1]; incubation with IL-6, range 1-10 ng/ml, 24-h, n=6): concentration-dependent relationship; also recorded: significantly induces; albumin secretion (excretion) from HepG2 cells (HepG2 cells [2]; incubation with IL-6 or other cytokines/hormones, 24-h, n=6): no significant effects; also recorded: no effect |
| N=C(N)NCCC[C@H](N)C(=O)O [Arg, arginine] | significantly decreased; also recorded: significantly inhibited | significantly decreased; also recorded: significantly inhibited |  |
| IL-1β: cytokine, used at 10 ng/ml [reference compound] |  |  | inhibition of IL-6 induced fibrinogen secretion (HepG2 cells [1]; [3]): approximately 25% |
| insulin [reference compound] |  |  | inhibition of IL-6 induced fibrinogen secretion (HepG2 cells [1]; [3]): 50% |
| N[C@@H](CO)C(=O)O [Ser, serine] | significantly decreased; also recorded: significantly inhibited | significantly decreased; also recorded: significantly inhibited |  |
| N[C@@H](CS)C(=O)O [cysteine] | significantly decreased; also recorded: significantly inhibited | significantly decreased; also recorded: significantly inhibited |  |
| C[C@@H]1C[C@H]2[C@@H]3CCC4=CC(=O)C=C[C@]4(C)[C@@]3(F)[C@@H](O)C[C@]2(C)[C@@]1(O)C(=O)CO [dexamethasone, reference compound] |  |  | enhancing effect on IL-6 induced fibrinogen secretion (HepG2 cells [1]; added in combination with IL-6 10 ng/ml, dexamethasone 1 μM, n=6): 20% |

Source: patent US20120252723A1, “Regulating the Amino Acid Pool Used for the Acute-Phase Protein Synthesis” (N.V. Nutricia, priority 2009, published 2012)
